Experimental data published in patent EP4768489A1, “CYCLOBUTYL-CONTAINING COMPOUNDS” (Chia Tai Tianqing Pharmaceutical Group Co., Ltd., priority 2023, dated 2025).

Columns and labels:
LNCaP (T878A) cells = test: cells; conditions: Homo sapiens, 168 h
Experimental: LNCaP cells in a good growth state were taken, washed with PBS, and digested with pancreatin, and a phenol red-free 1640 complete medium containing 2% CSS-FBS was added to terminate the digestion. The cells were collected into a centrifuge tube, adjusted to a cell density of 1 × 10^5 cells/mL, and seeded in a 96-well plate (100 µL/well). Meanwhile, compounds were added using a nanoliter pipettor and subjected to a 2-fold gradient dilution such that the final concentrations of the compounds were 1000 nM-0.061 nM and 5000 nM-0.305 nM. 2 duplicate wells were set, and meanwhile, a control was set. After the cells were cultured in the cell incubator for another 168 h, the detection reagent CCK-8 (manufacturer: Dojindo, 10 µL/well) was added. After 2.0 h of incubation in the cell incubator, absorbance values at 450 nm were measured using a PerkinElmer Envision microplate reader, the four-parameter analysis was performed, the dose-response curves were fit, and IC50 was calculated.

Mouse pharmacokinetics = conditions: Mouse i.g. (0-48 h), 10 mpk vs i.v. 1 mpk
Experimental: (§1) ICR mice weighing 18-22 g were randomized into groups of 9 after 3-5 days of acclimatization. The mice in the intragastric administration group were intragastrically given the test compound solution at a dose of 10 mg/kg (20 mg/kg or 30 mg/kg), and the mice in the intravenous injection administration group were intravenously injected with the test compound solution at a dose of 1 mg/kg.
(§2) Blood was collected from the orbit to prepare plasma samples to be tested.
(§3) 30 µL of each of the plasma samples to be tested and a standard curve sample were taken, and an acetonitrile solution containing an internal standard was added. Supernatants were obtained by protein precipitation, diluted with a 1:1 (v:v) mixed solution of acetonitrile and water, and then assayed by LC/MS/MS. Data were fitted using a non-compartmental model.

[1] = target: T1, AR in MDA-PCA-2B (L702H\T878A) cells (Homo sapiens, UniProt P10275, L702H/T878A); test: Assay on degradation activity for AR in MDA-PCA-2B (L702H\T878A) cells (HTRF); type: cell-based; conditions: 24 h; for DC50: AR degradation; for Dmax: maximum degradation rate
T1 construct: Assay on degradation activity for AR in MDA-PCA-2B (L702H\T878A) cells; endogenous in cells; host or cells: MDA-PCA-2B cells
T1 sequence (P10275 1-920 L702H/T878A): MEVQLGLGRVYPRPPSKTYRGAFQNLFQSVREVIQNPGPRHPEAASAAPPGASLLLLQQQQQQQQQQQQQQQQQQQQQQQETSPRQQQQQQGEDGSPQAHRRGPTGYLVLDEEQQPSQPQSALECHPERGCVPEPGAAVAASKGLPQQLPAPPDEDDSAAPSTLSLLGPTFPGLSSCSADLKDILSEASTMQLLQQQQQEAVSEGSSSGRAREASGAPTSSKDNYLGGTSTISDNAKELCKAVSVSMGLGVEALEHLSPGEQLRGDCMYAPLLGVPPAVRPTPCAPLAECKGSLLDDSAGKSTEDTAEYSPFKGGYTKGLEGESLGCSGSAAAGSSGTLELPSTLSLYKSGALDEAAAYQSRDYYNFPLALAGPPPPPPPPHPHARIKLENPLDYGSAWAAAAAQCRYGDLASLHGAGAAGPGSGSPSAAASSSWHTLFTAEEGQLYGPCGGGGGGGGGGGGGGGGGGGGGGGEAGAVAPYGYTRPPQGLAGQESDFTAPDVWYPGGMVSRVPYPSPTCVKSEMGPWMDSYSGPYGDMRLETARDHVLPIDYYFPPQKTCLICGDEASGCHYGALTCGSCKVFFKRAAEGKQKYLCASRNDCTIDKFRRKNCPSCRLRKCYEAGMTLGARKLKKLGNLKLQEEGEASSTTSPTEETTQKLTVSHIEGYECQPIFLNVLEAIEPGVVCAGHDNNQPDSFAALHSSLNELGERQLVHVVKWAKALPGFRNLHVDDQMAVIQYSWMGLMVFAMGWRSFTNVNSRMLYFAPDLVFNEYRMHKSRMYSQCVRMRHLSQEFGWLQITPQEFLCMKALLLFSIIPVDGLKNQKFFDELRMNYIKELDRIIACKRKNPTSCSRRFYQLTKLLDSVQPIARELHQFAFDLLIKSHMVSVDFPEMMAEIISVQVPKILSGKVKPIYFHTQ
Experimental: The detection was carried out using the HTRF HUMAN ANDROGEN RECEPTOR DETECTION KIT (cisbio, 64ANDRPEG), 4× Supplemented Lysis buffer was prepared using the Blocking reagent stock solution (100×) and Lysis buffer stock solution (4×), and 1× Supplemented Lysis buffer was prepared using the 4× Supplemented Lysis buffer and ddH2O. Premixed antibody solutions were prepared using Detection buffer, Androgen Receptor Eu Cryptate antibody, and Androgen Receptor d2 antibody.
The cells were cultured overnight in a cell incubator. […] After the cells were oscillated for 40 min at room temperature, 16 µL of the cell lysis buffer was added to a 384-well plate, the Premixed antibody solutions were added at 4 µL/well, and the mixture was left to stand at 25 °C for 2 h. […]

22RV1 (H875Y/ARV7) cells = test: Assay on inhibitory activity for 22RV1 (H875Y/ARV7) cell proliferation (CellTiter-Glo); type: cell-based; conditions: Homo sapiens, 168 h
Experimental: After 10 min of incubation at room temperature, the mixture was transferred to a white plate at 100 µL/well. […] Table 6. Inhibitory activity of compounds for 22RV1 (H875Y/ARV7) cell proliferation

in vivo = conditions: mouse
Experimental: as §1, §2, §3

[2] = In vitro liver microsome stability, human; type: in vitro ADME; conditions: human liver microsomes 0.5 mg/mL, 37 °C, NADPH
Experimental: Liver microsome incubation samples were prepared by mixing a PBS buffer (pH 7.4), a liver microsome solution (0.5 mg/mL), a test compound, and an NADPH + MgCl2 solution, followed by incubation at 37 °C and 300 rpm for 1 h. Zero-hour samples were prepared by mixing a PBS buffer (pH 7.4), a liver microsome solution (0.5 mg/mL), and a test compound. […]

VCaP cells = test: Assay on inhibitory activity for VCaP cell proliferation (CCK-8); type: cell-based; conditions: Homo sapiens, 168 h
[3] = tested on: MDA-PCA-2B (L702H\T878A) cells; test: Assay on inhibitory activity for MDA-PCA-2B (L702H\T878A) cell proliferation (CCK-8); type: cell-based; conditions: 168 h
Excerpt: Table 7. Inhibitory activity of compounds for MDA-PCA-2B (L702H\T878A) cell proliferation

| SMILES | IC50 (LNCaP (T878A) cells) | F (Mouse pharmacokinetics) | DC50 [1] | Dmax [1] | IC50 (22RV1 (H875Y/ARV7) cells) | AUC at 48 h (in vivo; iv, 1 mg/kg) | Vd (in vivo; iv, 1 mg/kg) | clearance (in vivo; iv, 1 mg/kg) | half-life (in vivo; iv, 1 mg/kg) | AUC at 48 h (in vivo; po, 10 mg/kg) | Cmax (in vivo; po, 10 mg/kg) | half-life (in vivo; po, 10 mg/kg) | HLM (human) Remaining amount at 60 min % [2] | IC50 (VCaP cells) | IC50 [3] |
| --- | --- | --- | --- | --- | --- | --- | --- | --- | --- | --- | --- | --- | --- | --- | --- |
| COc1cc(O[C@H]2C(C)(C)[C@H](NC(=O)c3ccc(N4CCC(CN5CCc6c(ccc7c(C8CCC(=O)NC8=O)noc67)C5)CC4)cc3)C2(C)C)ccc1C#N (stereo partly shown) [Compound 1] | < 50 nM | 31.99% | < 500 nM | > 70% | < 500 nM | 8380 ng·h/mL | 2.13 L/kg | 1.78 mL/min/kg | 13.9 h | 26800 ng·h/mL | 786 ng/mL | 24.9 h | >70% | < 2000 nM | < 500 nM |
| COc1cc(O[C@H]2C(C)(C)[C@H](NC(=O)c3ccc(N4CCC(CN5CCc6c(ccc7c(C8CCC(=O)NC8=O)noc67)C5)CC4)nc3)C2(C)C)ccc1C#N (stereo partly shown) [Compound 3] | < 50 nM |  | < 500 nM | > 70% | < 500 nM |  |  |  |  |  |  |  | >70% | < 2000 nM | < 500 nM |
| COc1cc(O[C@H]2C(C)(C)[C@H](NC(=O)c3cnc(N4CCC(CN5CCc6c(ccc7c(C8CCC(=O)NC8=O)noc67)C5)CC4)nc3)C2(C)C)ccc1C#N (stereo partly shown) [Compound 4] | < 50 nM | 55.36% | < 500 nM | > 70% | < 500 nM | 7730 ng·h/mL | 2.14 L/kg | 1.97 mL/min/kg | 10.5 h | 39000 ng·h/mL | 1360 ng/mL | 11.7 h | >70% | < 2000 nM | < 500 nM |
| COc1cc(O[C@H]2C(C)(C)[C@H](NC(=O)c3cnc(N4CCC(CN5CCc6c(ccc7c(C8CCC(=O)NC8=O)noc67)C5)CC4)cn3)C2(C)C)ccc1C#N (stereo partly shown) [Compound 5] | < 50 nM | 50.78% | < 500 nM | > 70% | < 500 nM | 4340 ng·h/mL | 3.79 L/kg | 3.5 mL/min/kg | 9.91 h | 22100 ng·h/mL | 1010 ng/mL | 9.72 h | >70% | < 2000 nM | < 500 nM |
| COc1cc(O[C@H]2C(C)(C)[C@H](NC(=O)c3ccc(N4CCC(CN5CCc6c(ccc7c(C8CCC(=O)NC8=O)noc67)C5)CC4)nn3)C2(C)C)ccc1C#N (stereo partly shown) [Compound 6] | < 50 nM |  | < 500 nM | > 70% |  |  |  |  |  |  |  |  |  |  |  |
